Source: patent US8669232B2, “Flavonol compounds, a bioactive extract/fraction from Ulmus wallichiana and its compounds for prevention for treatment of osteo-health related disorders” (Council of Scientific & Industrial Research, priority 2008, dated 2014)

Legend:
calvarial osteoblasts = test: BrdU cell proliferation assay; type: cell-based, neonatal Sprague-Dawley rats
Procedure: Neonatal rat calvarial cell cultures are prepared as described previously (Chattopadhyay et al., Endocrinology 145:3451-62, 2004) using slight modification. Briefly, for calvarial osteoblast cultures, frontal and parietal bones from neonatal Sprague-Dawley rats (1-3 day old) were digested in 0.1% collagenase/0.1% dispase in α-MEM to obtain 5 sequential digests. The second through fifth digests are combined and grown to confluence at 37° C. and 5% CO2 in air in α-MEM, supplemented with 10% fetal bovine serum (FBS), 2 mM glutamine, 100 U/ml penicillin-streptomycin, non-essential amino acid solution and sodium pyruvate.
BrdU assay is used to measure cell proliferation based on the incorporation of BrdU during DNA synthesis in proliferating cells (Chattopadhyay et al., Endocrinology 145:3451-62, 2004). […] Cells were allowed to attach for 24 h and after that cells were starved in 0.5% FCS containing α-MEM medium followed by treatment of K058 at various concentrations for 24 hrs following which cell proliferation was determined by BrdU ELISA method as described by the manufacturer (Roche Biochemicals, Rotkreuz, Switzerland). […] BrdU incubation was carried out for 4 h, cells were fixed and denatured and subsequently treated with anti-BrdU antibody and the immune complexes were detected by the substrate reaction. Absorbance was measured at 370 nm.

Ishikawa cells = test: In vitro estrogenicity / anti-estrogenicity (ALP induction); type: cell-based, human; conditions: 72 h; for inhibition of increase in ALP activity stimulated by 17β-estradiol (anti-estrogenicity): 10^−11 to 10^−6 M with 10^−8 M 17β-estradiol; for ALP levels (estrogenicity): 10^−11 to 10^−6 M
Procedure: The expression of alkaline phosphatase is induced in Ishikawa cells in response to estrogen or estrogen like substances (Littlefield et al, Endocrinology. 1990 December; 127(6):2757-62.). Ishikawa cells were plated in 96-well flat bottomed microtiter plates at a density of 5000 cells/well and cultured in phenol red free DMEM containing 10% charcoal treated FCS. After 24 h of plating, cells were serum-starved for 12 h. Thereafter, for testing estrogenicity of compounds, the cells were treated with different concentrations (10^−6 to 10^−11 M) of pure compounds K058 and K012. Same concentrations of Raloxifene were also used for comparison. Estrogen concentration of 10^−8 M was used as a positive control. Compound treatments were performed for 72 h at 37° C. in CO2 incubator. Experiments were repeated 4 times. For the anti-estrogenicity studies, the compounds K012 and K058 at 10^−6 to 10^−11 M were added with 10^−8 M estrogen. After 72 h of incubation, the media was removed and the plates were washed twice with PBS and dried by tapping, gently. Freeze fracture of cells was achieved by placing the plates at −70° C. for 15, min followed by bringing to room temperature. The plates were then placed on ice and 50 μl of ice cold diethanolamine solution (5 mM P-nitrophenyl phosphate (PNP) and 0.25 mM MgCl2 in 1 M diethanolamine) was added to each well. The plates were then placed at 37° C. for 30 minutes for color (yellow) development is a function of ALP activity. Absorbance was measured at 405 nm.

[1] = system: growing female Sprague Dawley rats; test: Attainment of peak bone mass: BMD by DEXA in growing rats; type: in vivo; conditions: 21 days old female rats, 5 mg/kg body weight oral daily, 30 days; vs vehicle
Procedure: 21 days old female Sprague Dawley rats were divided into three groups, each group consisted of 10 rats; control (vehicle treated), 750 mg/kg C002 crude extract, and 50 mg/kg 914/F004. Vehicle or treatments were given daily by oral route in gum acacia for 30 days. After completion of 30 days the rats were euthanized and there bones (femur, tibia, L1-L4 vertebra) were collected.
Bone Mineral Density of Femur (Global, head, neck), tibia (global, head, tibio-fibular separation point) and lumber vertebra (LV1, LV2, LV3, LV4) was determined by DEXA.
Female Sprague Dawley rats at weaning (˜21 d old) were divided into two groups consisting of 10 rats per group. Control rats were treated with gum acacia (vehicle) and the other group was treated with K058 at 5 mg/kg body weight. All the control and treated rats were given K058 or vehicle daily by oral route in gum acacia for 30 days. After completion of 30 days the rats were euthanized and their bones (femur, tibia, L1-L4 vertebra) were collected.
Bone mineral density of femur (global, head, neck), tibia (global, head, tibio-fibular separation point) and lumber vertebra (LV1, LV2, LV3, LV4) was determined by DEXA.

| Structure (SMILES) | osteoblast proliferation (summary of in vitro effects) (calvarial osteoblasts) | inhibition of increase in ALP activity stimulated by 17β-estradiol (anti-estrogenicity) (Ishikawa cells) | ALP levels (estrogenicity) (Ishikawa cells) | BMD shaft region of femur [1] |
| --- | --- | --- | --- | --- |
| O=c1c(O)c(-c2ccc(O)c(O)c2)oc2cc(O)c(C3O[C@H](CO)[C@@H](O)[C@H](O)[C@H]3O)c(O)c12 (stereo partly shown) [K012, 6-Glucopyranosyl-3,3′,4′,5,7-pentahydroxyflavone] | promoted | did not inhibit | no increase |  |
| O=C1c2c(cc(O)c([C@@H]3OC(CO)[C@@H](O)[C@H](O)C3O)c2O)O[C@@H](c2ccc(O)c(O)c2)[C@@H]1O (stereo partly drawn) [K058, (2S,3S)-(+)-3′,4′,5,7-tetrahydroxydihydroflavonol-6-C-β-D-glucopyranoside] | promoted | did not inhibit | no increase | significantly more |
